ChEMBL document CHEMBL1201862, “PubChem BioAssay data set” (2004)
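Cells were grown in 96-well plates and exposed to each compound for 48 hours at five concentrations; endpoints were interpolated linearly between bracketing concentrations, or set to the highest concentration if not reached. GI50 marks 50% less growth.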 Calls of active or inactive are those of the source. Rule as the data show it: active = GI50 up to about 1.1 µM and inactive = higher.

Key:
Test in all cases: inhibition of tumour cell growth, NCI panel, 48 h
A549 = test system: A549
CCRF-CEM = test system: CCRF-CEM
COLO 205 = test system: COLO 205
HT-29 = test system: HT-29
MCF7 = test system: MCF7
MDA-N = test system: MDA-N
NCI-H23 = test system: NCI-H23
NCI-H522 = test system: NCI-H522
NCI/ADR-RES = test system: NCI/ADR-RES
OVCAR-3 = test system: OVCAR-3
OVCAR-8 = test system: OVCAR-8
RPMI-8226 = test system: RPMI-8226
SF-268 = test system: SF-268
SF-295 = test system: SF-295
T47D = test system: T47D
U-251 = test system: U-251
UACC-62 = test system: UACC-62
SK-MEL-5 = test system: SK-MEL-5
HCC 2998 = test system: HCC 2998
NCI-H226 = test system: NCI-H226

| SMILES | GI50 (A549) | GI50 (CCRF-CEM) | GI50 (COLO 205) | GI50 (HT-29) | GI50 (MCF7) | GI50 (MDA-N) | GI50 (NCI-H23) | GI50 (NCI-H522) | GI50 (NCI/ADR-RES) | GI50 (OVCAR-3) | GI50 (OVCAR-8) | GI50 (RPMI-8226) | GI50 (SF-268) | GI50 (SF-295) | GI50 (T47D) | GI50 (U-251) | GI50 (UACC-62) | GI50 (SK-MEL-5) | GI50 (HCC 2998) | GI50 (NCI-H226) |
| --- | --- | --- | --- | --- | --- | --- | --- | --- | --- | --- | --- | --- | --- | --- | --- | --- | --- | --- | --- | --- |
| CC(=O)c1cccc(Nc2nc3ccccc3c3[nH]c4ccccc4c23)c1 | 2.78 µM (inactive) | 5.74 µM (inactive) | 2.23 µM (inactive) | 4.02 µM (inactive) | 0.403 µM (active) | 4.73 µM (inactive) | 9.38 µM (inactive) | 2.57 µM (inactive) | 4.05 µM (inactive) | 2.48 µM (inactive) | 3.86 µM (inactive) | 3.03 µM (inactive) | 3.67 µM (inactive) | 3.53 µM (inactive) | 3.48 µM (inactive) | 3.98 µM (inactive) | 1.94 µM (inactive) | – | – | – |
| O=C(/C=C/c1ccc(O)c(-c2cc(C(=O)/C=C/c3ccc(O)cc3)c(O)cc2O)c1)c1ccc(O)cc1O [RHUSCHALCONE VI] | > 50 µM (inactive) | 10.1 µM (inactive) | 10.5 µM (inactive) | 10.1 µM (inactive) | 20.2 µM (inactive) | 18.3 µM (inactive) | 23.9 µM (inactive) | 37.4 µM (inactive) | > 50 µM (inactive) | 16.2 µM (inactive) | 11.7 µM (inactive) | 18.6 µM (inactive) | 17.5 µM (inactive) | 37.5 µM (inactive) | 33.3 µM (inactive) | 15.8 µM (inactive) | 9.16 µM (inactive) | 27.8 µM (inactive) | – | – |
| CC(C)=CCC[C@](C)(O[C@@H]1O[C@H](CO)[C@@H](O)[C@H](O)[C@H]1O)[C@H]1CC[C@]2(C)[C@@H]1[C@H](O)C[C@@H]1[C@@]3(C)CC[C@@H](O)C(C)(C)[C@@H]3[C@@H](O[C@@H]3O[C@H](CO)[C@@H](O)[C@H](O)[C@H]3O)C[C@]12C.C[C@@H]1O[C@@H](O[C@H]2[C@H](O[C@H]3C[C@]4(C)[C@H](C[C@H](O)[C@@H]5[C@@H]([C@@]6(C)CC[C@H](C(C)(C)O)O6)CC[C@]54C)[C@@]4(C)CC[C@H](O)C(C)(C)[C@H]34)O[C@H](CO)[C@@H](O)[C@@H]2O)[C@H](O)[C@H](O)[C@H]1O | > 100 µM (inactive) | > 100 µM (inactive) | > 100 µM (inactive) | > 100 µM (inactive) | > 100 µM (inactive) | > 100 µM (inactive) | > 100 µM (inactive) | > 100 µM (inactive) | – | 24.9 µM (inactive) | > 100 µM (inactive) | > 100 µM (inactive) | > 100 µM (inactive) | > 100 µM (inactive) | > 100 µM (inactive) | > 100 µM (inactive) | > 100 µM (inactive) | > 100 µM (inactive) | > 100 µM (inactive) | > 100 µM (inactive) |
| COc1ccc(-c2cc(-c3cc(C)cc(Br)c3O)no2)cc1 | 13.3 µM (inactive) | > 10 µM (inactive) | > 10 µM (inactive) | 31.6 µM (inactive) | 15.7 µM (inactive) | 23.6 µM (inactive) | 14.7 µM (inactive) | 3.98 µM (inactive) | 7.67 µM (inactive) | 6.38 µM (inactive) | 4.31 µM (inactive) | 11.2 µM (inactive) | 4.17 µM (inactive) | 3.45 µM (inactive) | 5.38 µM (inactive) | 5.66 µM (inactive) | 6.47 µM (inactive) | 7 µM (inactive) | – | 5.18 µM (inactive) |
| O=C1/C(=C/c2ccc3c(c2)OCO3)CCC1CN1CCOCC1 (stereo not drawn) | 20.9 µM (inactive) | 1.54 µM (inactive) | 9.73 µM (inactive) | 5.77 µM (inactive) | 2.1 µM (inactive) | 2.04 µM (inactive) | 8.83 µM (inactive) | 1.04 µM (active) | – | 7.93 µM (inactive) | 7.64 µM (inactive) | 0.436 µM (active) | 10.5 µM (inactive) | 18.2 µM (inactive) | 3.98 µM (inactive) | 7.05 µM (inactive) | 9.16 µM (inactive) | 9.16 µM (inactive) | 8.75 µM (inactive) | 16.7 µM (inactive) |
| O=C(O)c1cccc(F)c1C(=O)c1ccc2ccccc2c1 | > 100 µM (inactive) | > 100 µM (inactive) | 2.99 µM (inactive) | > 100 µM (inactive) | > 100 µM (inactive) | > 100 µM (inactive) | – | 62.2 µM (inactive) | > 100 µM (inactive) | > 100 µM (inactive) | > 100 µM (inactive) | > 100 µM (inactive) | > 100 µM (inactive) | > 100 µM (inactive) | 3.94 µM (inactive) | > 100 µM (inactive) | > 100 µM (inactive) | < 0.01 µM (active) | – | > 100 µM (inactive) |
| Cn1c2c(c3ccccc31)CCN1C(=O)C3SC21C1C(=O)N(c2ccccc2)C(=O)C31 (stereo not drawn) | > 100 µM (inactive) | – | 41.8 µM (inactive) | > 100 µM (inactive) | 30.4 µM (inactive) | > 100 µM (inactive) | > 100 µM (inactive) | > 100 µM (inactive) | > 100 µM (inactive) | > 100 µM (inactive) | > 100 µM (inactive) | 38.1 µM (inactive) | > 100 µM (inactive) | > 100 µM (inactive) | > 100 µM (inactive) | > 100 µM (inactive) | 21.5 µM (inactive) | 20.4 µM (inactive) | – | 40.3 µM (inactive) |
